Data published in publication PMC3764026, “Adaptive Evolution of Escherichia coli to an α-Peptide/β-Peptoid Peptidomimetic Induces Stable Resistance” (PLoS ONE, 2013).
Values after ≈ are worked out from the molar mass of the structure shown. Where two headings read alike, the source gives them in different places.

Tests used:
[1] = tested on: Escherichia coli ATCC 25922; format: cell-based; conditions: wild-type E. coli ATCC 25922; MHB pH 7.4, 5×10^5 CFU/mL, 37°C, 18–20 h
Method: All experiments were performed with Escherichia coli ATCC 25922. Stock cultures of the wild-type strain and lineage isolates were stored at –80°C in 4% (w/v) glycerol, 0.5% (w/v) glucose, 2% (w/v) skimmed milk powder and 3% (w/v) tryptone soy powder. Lineage populations were frozen at –80°C in 50% (w/v) glycerol. All experiments were performed at 37°C. Experiments were carried out in cation-adjusted Mueller Hinton II broth (MHB) (Becton Dickinson 212322) adjusted to pH 7.4 or in 1% (w/v) peptone (Becton Dickinson 211677) for MIC determination of natural AMPs. Brain Heart Infusion (BHI) (CM1135) with agar (VWR 20768.292) 1.5% as gelling agent was used throughout for colony plating.
MIC was determined by using the micro-dilution method according to guidelines of the Clinical and Laboratory Standards Institute. Peptidomimetic 1 and erythromycin 1∶2 serial dilutions were prepared from 1024 µg/mL stock solutions to give a final range of 512-0.5 µg/mL in the wells. Ampicillin 1∶2 serial dilutions were prepared from a 256 µg/mL stock solution to give a final range of 128-0.13 µg/mL in the wells. Polymyxin B and gentamicin 1∶2 serial dilutions were prepared from a 64 µg/mL stock solution to give a final range of 32-0.03 µg/mL in the wells. Also, 1∶2 serial dilutions of the AMPs KR-12, IsCTp, melittin and PEP-1-K were prepared from 64 µg/mL stock solutions to give a final range of 32-0.03 µg/mL in the wells; however this was performed in 1% peptone instead of in MHB since activity was drastically diminished in the latter (not shown).
The population lineages were tested for their susceptibility towards peptidomimetic 1, polymyxin B, gentamicin and ampicillin. Single-culture isolates selected from these populations were additionally tested against peptidomimetic 1, polymyxin B, erythromycin and the five reference AMPs. To estimate the level of cross-resistance to closely related peptidomimetics, MIC determinations were performed for peptidomimetics 2 and 3 (Figure 1) towards selected isolates. […]

[2] = tested on: isolates from peptidomimetic 1-exposed E. coli ATCC 25922 lineages; conditions: two biological replicates
Method: Continuous selection of resistance was performed for peptidomimetic 1 (Figure 1) and for the clinically relevant natural antimicrobial peptide, polymyxin B. A bacterial suspension of a single colony of E. coli ATCC 25922 was re-inoculated (10 µl) five times in unsupplemented MHB (990 µl). It was then re-inoculated in MHB supplemented with peptidomimetic 1 (ten lineages) or polymyxin B (ten lineages), and after ten re-inoculations at constant peptidomimetic or polymyxin B concentration, the concentrations were doubled. […] Four lineages grown in MHB with MilliQ water were included as control. Re-inoculations were performed twice a day, but were reduced to once a day when growth was slower as assessed by turbidity of the cultures. The total number of passages (supplemented with peptidomimetic/AMP) was 77 times equivalent to approx. 500 generations. For each increase in concentration the lineages were preserved as freezing stocks. Ten colony isolates were randomly selected from each lineage population at 32×MIC and preserved as freezing stocks.
MIC was determined by using the micro-dilution method according to guidelines of the Clinical and Laboratory Standards Institute. Peptidomimetic 1 and erythromycin 1∶2 serial dilutions were prepared from 1024 µg/mL stock solutions to give a final range of 512-0.5 µg/mL in the wells. Ampicillin 1∶2 serial dilutions were prepared from a 256 µg/mL stock solution to give a final range of 128-0.13 µg/mL in the wells. Polymyxin B and gentamicin 1∶2 serial dilutions were prepared from a 64 µg/mL stock solution to give a final range of 32-0.03 µg/mL in the wells.
The population lineages were tested for their susceptibility towards peptidomimetic 1, polymyxin B, gentamicin and ampicillin. Single-culture isolates selected from these populations were additionally tested against peptidomimetic 1, polymyxin B, erythromycin and the five reference AMPs. To estimate the level of cross-resistance to closely related peptidomimetics, MIC determinations were performed for peptidomimetics 2 and 3 (Figure 1) towards selected isolates. The bacterial suspensions were grown overnight in MHB at 37°C for determination of the population MIC, or individual isolates were grown overnight on non-selective BHI agar at 37°C. […] In all experiments, bacterial cells were suspended in 0.9% saline to give a turbidity of 0.13 at OD546 (approximately 1×10^8 CFU/mL) and diluted in MHB pH 7.4 to a final concentration of 5×10^5 CFU/mL in each well. Polypropylene plates (Nunc 442587) were used to minimize peptide binding, and the incubation time was 18–20 hours at 37°C. […] MIC was found in a minimum of two technical (population MIC) or biological (isolate MIC) replicates as the lowest concentration of the AMP or antibiotic where no visible growth was observed.

With `CC(=O)N[C@@H](CCCCN)C(=O)N(CCC(=O)N[C@@H](CCCCN)C(=O)N(CCC(=O)N[C@@H](CCCCN)C(=O)N(CCC(=O)N[C@@H](CCCCN)C(=O)N(CCC(=O)N[C@@H](CCCCN)C(=O)N(CCC(=O)N[C@@H](CCCCN)C(=O)N(CCC(=O)N[C@@H](CCCCN)C(=O)N(CCC(=O)N[C@@H](CCCCN)C(=O)N(CCC(N)=O)[C@@H](C)c1ccccc1)[C@@H](C)c1ccccc1)[C@@H](C)c1ccccc1)[C@@H](C)c1ccccc1)[C@@H](C)c1ccccc1)[C@@H](C)c1ccccc1)[C@@H](C)c1ccccc1)[C@@H](C)c1ccccc1` [peptidomimetic 2] as the molecule, how does the “wt MIC” value [1] read?
Its value is 64 µg/mL.

And the MIC ([2]; isolates 2–4 and 2–6 (shared values), mean when results varied)?
The MIC was 512 µg/mL (≈ 206 µM).

What about the MIC ([2]; isolates 2–7, 2–9 and 2–10 (shared values), mean when results varied) of the same molecule?
The MIC was 512 µg/mL (≈ 206 µM).

And the MIC ([2]; six of the ten isolates from lineage no. 5 (data point shared with wild type))?
The MIC was 64 µg/mL (≈ 25.7 µM).
